Read-outs that look alike come from different tables or passages of the source.
Columns and labels:
[1] = molecular target: T1, UBE2T/FANCLRING (ubiquitylation of GST-FANCLRING) (Homo sapiens, UniProt Q9NW38); experiment: biochemical; conditions: for LE: ligand efficiency = 1.4(–logIC50)/HAC; for inhibition at 20 µM: read-out: Primary screen % Inhibition (20 M)
T1 sequence (Q9NW38 275-375 limits assumed): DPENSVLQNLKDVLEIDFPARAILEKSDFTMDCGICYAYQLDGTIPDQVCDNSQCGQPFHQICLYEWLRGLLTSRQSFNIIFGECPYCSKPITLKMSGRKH
Description: To identify small-molecule inhibitors of the FA pathway, we developed a high-throughput screen (HTS) compatible assay based on the FA ubiquitylation cascade (see Figure 1a, as well as Figure S1 in the Supporting Information). Given the complexity of the full FA ubiquitylation cascade, we constructed a simplified ubiquitylation reaction that would be robust for HTS purposes yet still provide many relevant protein species for small molecules to interact with. The recombinant protein assay developed used homogeneous time-resolved fluorescence (HTRF) and contained Cy5-labeled ubiquitin, the E1 enzyme UBE1, the E2 enzyme UBE2T, and the RING domain (residues 275–375) of the E3 FANCL (FANCLRING). FANCLRING was used as a surrogate substrate for ubiquitylation in the absence of the FA core and FANCD2/FANCI complexes.
Figure 1 Screening for inhibitors of the FA pathway. (a) Schematic of the HTRF ubiquitylation assay. Ubiquitylation of GST-tagged E3 (FANCLRING) by the E2 (UBE2T) places Cy5-labeled ubiquitin in close proximity to the anti-GST Tb cryptate. Excitation of the Tb cryptate donor results in FRET to the Cy5 acceptor. Simultaneous monitoring of the donor emission (620 nm) and acceptor emission (665 nm) allows for determination of the 665/620 ratio. (b) HTRF screen results showing average inhibition (n = 2) produced by compounds at 20 μM (in-house diversity library; 10 111 compounds) and 10 μM (Selleckchem epigenetic library; 119 compounds). Numbers given in parentheses represent the number of compounds per inhibition threshold.
Purified protein was concentrated using a Vivaspin-6 concentrator with a 10 kDa MW cut-off (Vivascience) and flash-frozen in small aliquots for storage at […]
Cy5 labelling of ubiquitin. To a 5 mg/mL solution of recombinant human ubiquitin (Boston Biochem) in 0.1 M NaHCO3 pH 8.3, was added a 4-fold molar excess of Cyanine5 NHS ester (Lumiprobe). The reaction was incubated at 23 °C for 4 hours in the dark. The protein was separated from unreacted dye by passage through a PD-10 desalting column (GE Healthcare) equilibrated with PBS. Purified protein was concentrated using a Vivaspin-6 concentrator with a 3 kDa MW cut-off (Vivascience) and flash-frozen in small aliquots for storage […]
Homogeneous Time-Resolved Fluorescence (HTRF) Assay. GST-FANCLRING (200 nM) was incubated with anti-GST Tb (CisBio, #61GSTTL) (2.5 ng final) at room temperature for 30 minutes in assay buffer (50 mM Tris-HCl pH 8.0, 1 mM TCEP, 5 mM MgCl2, 0.005% Tween-20). Meanwhile, 10 μL of UBE2T in assay buffer (or assay buffer alone for no enzyme controls) was incubated in a white 384-well plate (Corning) with 20 nL DMSO or compound in DMSO. After 30 minutes, the GST-RINGRING solution was added to an equal volume solution containing His-UBE1 (Boston Biochem) (16 nM), Cy5-ubiquitin (400 nM), ATP (0.8 mM) in assay buffer. 10 μL of this solution was immediately added to each well of the 384 -well plate containing UBE2T or buffer. F inal concentrations: His -UBE1 (4 nM), UBE2T (6 nM), GST -RINGRING (50 nM), Cy5-ubiquitin (100 nM), ATP (0.2 mM), compound (10 or 20 μM) in 0.1 %
(v/v) DMSO. After a 10 minute incubation at 23 °C, 5 µL of a 50 mM EDTA solution were added to each well to stop the reaction. Signal was measured at λEx 340 nm and λEm 665 nm and 620 nm using a PHERAstar FS plate reader
(BMG Labtech). A ratio was calculated as [λEm(665)/λEm(620)] × 104 for each well and this was used to determine the percent inhibition for test compounds.
Gel-based ubiquitylation assays. Assays were carried out in a total volume of 10 µL containing 20 nM His6-UBE1 (Boston Biochem), 50 nM UBE2T, 250 nM GST-E3 and 500 nM biotinylated ubiquitin (Boston Biochem) in buffer (50

[2] = tested on: FANCD2 foci and γH2AX in U2OS cells; experiment: High-throughput high content indirect immunofluorescence (FANCD2 foci, γH2AX); type: cell-based; conditions: CU2 500 μM, HU 2.5 mM 8 h, cisplatin 10 μM 8 h; for H2AX positive nuclei, Experiment 1 / H2AX positive nuclei, Experiment 2 / H2AX positive nuclei, Experiment 3: CU1 200 μM, raw data; for H2AX positive nuclei, Totals: sum of experiments 1-3, CU1 200 μM
Protocol: In response to DNA damage, mUb-FANCD2 accumulates at sites of DNA lesions to form foci, promote DNA-damage sensing, activate cell-cycle checkpoints, and promote DNA repair.[23] Therefore, we employed high-throughput high-content indirect immunofluorescence studies to examine the effect of CU1 and CU2 on mUb-FANCD2 focus formation. The experimental format used was similar to the immunoblot-based experiments, excepting that, following treatment with HU (2.5 mM for 8 h) or cisplatin (10 μM for 8 h), cells were fixed, permeabilized and stained with specific FANCD2 primary and fluorescent secondary antibodies. In addition to monitoring mUb-FANCD2 foci, γH2AX was evaluated as a marker of DNA damage induction, and cell nuclei were visualized by 4′,6-diamidino-2-phenylindole (DAPI) staining. […] These observations are in accord with the immunoblot-based experiments wherein reductions in mUb-FANCD2 were observed (Figure 3a).
Figure 4 Further cell-based assays with CU1 and CU2: (a, b) Representative immunofluorescence images of U2OS cells treated with HU (2.5 mM, 8 h) or cisplatin (10 μM, 8 h) in the presence or absence of CU1 (200 μM) or CU2 (500 μM). (c) Quantification of the number of FANCD2 foci in cells treated as in panels (a) and (b). Data accumulated over three independent experiments, each consisting of three technical replicas. (d) IncuCyte analysis of U2OS cells treated with or without carboplatin (15 μM) and CU2 (250 μM). Mean calculated from three wells, four images per well. (HU = DMSO + HU, cisplatin = DMSO + cisplatin). […]
buffer (1 hour at room temperature) followed by three washes with PBST. Cells were then counterstained with DAPI (25 µg/mL) and mounted using Vectashield […]
High-throughput high content indirect immunofluorescence. U2OS cells, seeded in a 96-well plate, were treated with compound for 1 hour followed by 2.5 mM HU or 10 µM cisplatin for 8 hours. Cells were washed 3 times with wash buffer (1xPBS, 0.1% Tween-20) before being fixed in 2% paraformaldehyde (w/v) for 20 minutes at 23 °C. The cells were then washed a further 3 times in wash buffer before being stored overnight at 4°C in the final wash. Next day, the cells were permeabilized using 1xPBS, 0.5% Triton X-100 for 15 minutes at 23 °C and then washed 3 times with wash buffer before blocking with 5% BSA in 1xPBS, 0.1% Tween-20 for 30 minutes at 23 °C. After washing 3 times with wash buffer, the cells were incubated for 1 hour at 23 °C in the presence of primary antibodies (1:50 FANCD2, Santa Cruz, mouse monoclonal and 1:250 γH2AX, Cell Signalling, rabbit) in 5% BSA in wash buffer. After incubation in the presence of primary antibodies, the cells were washed 3 times with wash buffer before being incubated with secondary antibodies in 5% BSA in wash buffer for 1 hour in the dark at 23 °C. The secondary antibodies used were goat anti-mouse AlexaFluor 488 and goat anti-rabbit AlexaFluor 594 (both from Molecular Probes, Invitrogen). The cells were then washed a further 3 times with wash buffer before being stained in the presence of 2 µg/ml DAPI (Sigma D9542) in wash buffer for 10 minutes in the dark at 23 °C. After DAPI staining, the cells were washed 3 more times with wash buffer and stored in the final wash until ready for imaging.
A spinning-disk Opera PhenixTM (Perkin Elmer) microscope equipped with a 40x water immersion objective was employed to acquire 10 confocal images for each well in a single optimized focal plane comprising three fluorescence channels: 405, 488 and 568 nm for DAPI, Alexa Fluor 488 and Alexa Fluor 594, respectively. Image analysis and evaluation was done using Harmony High-Content Imaging and Analysis software. DAPI staining (405 nm) was used to segment nuclei, which were further gated for the presence of γH2AX staining

U2OS cells = experiment: IncuCyte cell proliferation assay; type: cell-based; conditions: 15 μM carboplatin in DMSO-treated cells
Protocol: Figure 4 Further cell-based assays with CU1 and CU2: (a, b) Representative immunofluorescence images of U2OS cells treated with HU (2.5 mM, 8 h) or cisplatin (10 μM, 8 h) in the presence or absence of CU1 (200 μM) or CU2 (500 μM). (c) Quantification of the number of FANCD2 foci in cells treated as in panels (a) and (b). Data accumulated over three independent experiments, each consisting of three technical replicas. (d) IncuCyte analysis of U2OS cells treated with or without carboplatin (15 μM) and CU2 (250 μM). Mean calculated from three wells, four images per well. (HU = DMSO + HU, cisplatin = DMSO + cisplatin).
Finally, to investigate if CU1 and CU2 could sensitize cells to a more clinically relevant chemotherapeutic agent, quantitative live cell analyses were performed using the IncuCyte platform. As the FA pathway is involved in the repair of ICLs, cells were treated with the ICL-inducing chemotherapeutic drug, carboplatin. For this experiment, U2OS cells were seeded at a relatively low (<10%) density and preincubated with CU1 or CU2 for 1 h. Carboplatin was then added to the cells and images were taken every 6 h for 8 days in order to monitor growth and proliferation of the cells.
Reaction mixtures were incubated for the indicated time at 37 °C and stopped by the addition of 2X reducing SDS -PAGE sample buffer, separated on NuPAGE Novex 4 –12% Bis/Tris gradient gels (Invitrogen) and visualized by Western blotting using the indicated antibodies (Table S3).
Cell culture. U2OS cells were cultured at 37 °C in a humidified atmosphere and 5% (v/v) CO2 in Dulbecco's Modified Eagle Medium (DMEM; Sigma-Aldrich) supplemented with 10% (v/v) fetal bovine serum (FBS), 100 units/ml of penicillin, […] of streptomycin and 292 μg/mL L-glutamine.
Cell extract preparation and immunoblotting. U2OS cells were lysed in buffer containing 50 mM Tris-HCl pH 7.5, 2% SDS, 10 mM NEM, cocktail protease inhibitor (Roche) and phosphatase inhibitor cocktail followed by sonication 100 µg of extracts were boiled for 5 mins at 95 °C in 5X loading buffer and loaded onto NuPAGE Novex 4–12% Bis/Tris gradient gels
(Invitrogen), or NuPAGE Novex 3-8% Tris/Acetate gradient gels (Invitrogen) for detection of mUb-FANCD2. After separation the gels were transferred to PVDF and the membranes were blocked with Tris-buffered saline containing 0.1% (v/v) Tween-20 (TBST) and 5% (v/v) bovine serum albumin (BSA) and incubated with the indicated primary and secondary antibodies. mUb-FANCD2 intensity was quantified using Image Studio (LI-COR).
IncuCyte cell proliferation assays. 2000 U2OS cells were seeded per well in 96-well plates and treated with compounds 24 hours afterwards. After 1 hour of compound treatment, 15 µM carboplatin (Sigma-Aldrich) was added and the cells were cultured in an incubator with an IncuCyte microscopy -platform (Essen BioScience). Phase -contrast images were acquired every 6 hours for 8 days until DMSO-carboplatin treated cells reached >80% confluence. Cell proliferation was monitored as the occupied area (% confluence) of cell images over time and calculated as percentage confluence over time. Cell confluency percentages were calculated using the integrated Cell Player software and results were analysed with Prism 6 (GraphPad Software).

[3] = library stock, 10-point dose-response, read-out: Primary screen IC50
[4] = printed beside the structures in Figure S3, read-out: IC50 (Figure S3)

| SMILES | IC50 [1, 3] [µM] | LE [1] | IC50 [1, 4] [µM] | inhibition at 20 µM [1] [%] | H2AX positive nuclei, Experiment 1 [2] | H2AX positive nuclei, Experiment 2 [2] | H2AX positive nuclei, Experiment 3 [2] | H2AX positive nuclei, Totals [2] | proliferation rate (U2OS cells) | confluency (U2OS cells; after 8 days) [%] |
| --- | --- | --- | --- | --- | --- | --- | --- | --- | --- | --- |
| COc1ccc(CNC(=O)c2ccc(-n3nccc3C)cc2)cc1C(=O)O [CU3] | 51.8 | 0.22 | 49.8 | 20.3 |  |  |  |  |  |  |
| Cc1cc(C(=O)O)cc(S(=O)(=O)Nc2ccccc2-n2cccn2)c1C [CU4] | 61 | 0.22 | 82.5 | 20.7 |  |  |  |  |  |  |
| O=C(c1ccc2n[nH]nc2c1)N1CCC(COc2ccccc2)CC1 [CU6] | 30.8 | 0.26 | 25.8 | 37 |  |  |  |  |  |  |
| Cc1nc2ccccc2n1CCNS(=O)(=O)c1ccc2c(c1)CC(=O)N2 [CU7] | 64.2 | 0.24 | 35.3 | 39.6 |  |  |  |  |  |  |
| Cn1ncc(C#N)c1NC(=O)Cc1coc2cc3c(cc12)CCC3 [CU8] | 33.7 | 0.24 | 73.2 | 34 |  |  |  |  |  |  |
| NC(=O)NO [HU, Hydroxyurea, reference compound] |  |  |  |  | 390 | 672 | 708 | 1770 |  |  |
| N.N.O=C([O-])C1(C(=O)[O-])CCC1.[Pt+2] [carboplatin, reference compound] |  |  |  |  |  |  |  |  | clear reduction in proliferation rate | < 100 |
| N.N.[Cl][Pt][Cl] [cisplatin, reference compound] |  |  |  |  | 915 | 1122 | 1056 | 3093 |  |  |
